Data from patent US20220241249A1, “PHARMACEUTICAL COMPOSITION AND KIT CONTAINING NOVEL PENAM DERIVATIVE OR SALT THEREOF AND ONE OR MORE COMPOUNDS SELECTED FROM beta-LACTAMASE INHIBITORY COMPOUND AND ANTIBACTERIAL COMPOUND OR SALTS THEREOF” (priority 2019, published 2022).
≈ marks a conversion by molar mass, not a printed value. Read-outs that look alike come from different tables or passages of the source.

Tests used:
Assay type in all cases: cell-based
[1] = test system: Escherichia coli TK-3113 strain producing IMP-8 (strain D); assay: MIC of test compound alone or with β-lactamase inhibitor at 4 μg/mL; conditions: Escherichia coli
Method: By using a broth microdilution method, the combinational effect of a test compound and a β-lactamase inhibitor was evaluated.
The evaluation test for antibacterial activity was performed in the same manner as in Test Example 1.
Escherichia coli TK-3113 strain producing IMP-8 (hereinafter, called strain D),
An antibacterial activity evaluation test was performed in the same manner as in Test Example 6.
As the bacterial strain, the strains B, C, and D producing β-lactamase and a Klebsiella pneumoniae Y-1069 strain (hereinafter, called strain F) producing OXA-48 and CTX-M-15 were used.

[2] = test system: IMP-1-containing Pseudomonas aeruginosa strain (S-2838); assay: Antibacterial activity evaluation test, MIC by broth microdilution (CLSI); conditions: Pseudomonas aeruginosa
In short: (§1)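 MIC (μg/mL) = lowest drug concentration showing no visible bacterial growth after 16–20 h at 35° C. in cation-adjusted Mueller Hinton broth. Inoculum: agar-grown cells at 0.5 McFarland, diluted 10-fold.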

[3] = test system: AmpC-derepressed Pseudomonas aeruginosa mutant strain (S-3028); assay: as above; conditions: Pseudomonas aeruginosa
In short: as §1

[4] = test system: GES-19 and GES-20-containing Pseudomonas aeruginosa strain (S-3759); assay: as above; conditions: Pseudomonas aeruginosa
In short: as §1

[5] = test system: NDM-1-containing Klebsiella pneumoniae strain (Y-1007); assay: as above; conditions: Klebsiella pneumoniae
In short: as §1

[6] = test system: OXA-48-containing Klebsiella pneumoniae strain (Y-1062); assay: as above; conditions: Klebsiella pneumoniae
In short: as §1

[7] = test system: CTX-M-15-containing Escherichia coli strain (TK-1747); assay: as above; conditions: Escherichia coli
In short: as §1

[8] = test system: Pseudomonas aeruginosa strain ATCC27853; assay: as above; conditions: ATCC27853
In short: as §1

[9] = test system: KPC-2-containing Klebsiella pneumoniae strain (Y-995); assay: as above; conditions: Klebsiella pneumoniae
In short: as §1

[10] = test system: VIM-2-containing Pseudomonas aeruginosa strain (S-3779); assay: as above; conditions: Pseudomonas aeruginosa
In short: as §1

| SMILES | MIC ([1]; AVI added at 4 μg/mL) | MIC ([1]; test compound alone (β-lactamase inhibitor N/A)) | MIC [2] | MIC [3] | MIC [4] | MIC [5] | MIC [6] | MIC [7] | MIC ([8]; Pseudomonas aeruginosa) | MIC [9] | MIC [10] | MIC ([8]; Pseudomonas aeruginosa ATCC 27853, 35° C., 16 to 20 hours, read-out: MIC) |
| --- | --- | --- | --- | --- | --- | --- | --- | --- | --- | --- | --- | --- |
| CC(C)(O/N=C(\C(=O)N[C@@H]1C(=O)N2C(C(=O)[O-])=C(C[n+]3ccccc3)CS[C@H]12)c1csc(N)n1)C(=O)O [CAZ, ceftazidime hydrate, reference compound] | > 128 µg/mL | > 128 µg/mL | – | – | – | – | – | – | – | – | – | – |
| CC(C)(O/N=C(\C(=O)N[C@@H]1C(=O)N2C[C@@](C(=O)O)(N3CC[C@H](NC(=O)C(=O)c4ccc(O)c(O)c4Cl)C3=O)S[C@H]12)c1csc(N)n1)C(=O)O [Example 84, (3R,5R,6R)-6-((Z)-2-(2-aminothiazol-4-yl)-2-(((2-carboxypropan-2-yl)oxy)imino)acetamido)-3-((S)-3-(2-(2-chloro-3,4-dihydroxyphenyl)-2-oxoacetamido)-2-oxopyrrolidin-1-yl)-7-oxo-4-thia-1-azabicyclo[3.2.0]heptane-3-carboxylic acid] | – | – | 0.5 µg/mL (≈ 0.676 µM) | 0.5 µg/mL (≈ 0.676 µM) | 1 µg/mL (≈ 1.35 µM) | < 0.06 µg/mL | < 0.06 µg/mL | < 0.06 µg/mL | 0.5 µg/mL (≈ 0.676 µM) | 0.5 µg/mL (≈ 0.676 µM) | 0.5 µg/mL (≈ 0.676 µM) | – |
| CC(C)(O/N=C(\C(=O)N[C@@H]1C(=O)N2C[C@@](C(=O)O)(n3ncn(NC(=O)C(=O)c4ccc(O)c(O)c4Cl)c3=O)S[C@H]12)c1csc(N)n1)C(=O)O [Example 26, (3R,5R,6R)-6-((Z)-2-(2-aminothiazol-4-yl)-2-(((2-carboxypropan-2-yl)oxy)imino)acetamido)-3-(4-(2-(2-chloro-3,4-dihydroxyphenyl)-2-oxoacetamido)-5-oxo-4,5-dihydro-1H-1,2,4-triazol-1-yl)-7-oxo-4-thia-1-azabicyclo[3.2.0]heptane-3-carboxylic acid] | – | – | 0.25 µg/mL (≈ 0.338 µM) | 0.12 µg/mL (≈ 0.162 µM) | 0.25 µg/mL (≈ 0.338 µM) | < 0.06 µg/mL | 0.5 µg/mL (≈ 0.676 µM) | 0.12 µg/mL (≈ 0.162 µM) | 1 µg/mL (≈ 1.35 µM) | 0.12 µg/mL (≈ 0.162 µM) | 0.25 µg/mL (≈ 0.338 µM) | – |
| CC(C)(O/N=C(\C(=O)N[C@@H]1C(=O)N2C[C@@](C(=O)O)(n3nnc(CNC(=O)c4ccc(O)c(O)c4Cl)n3)S[C@H]12)c1csc(N)n1)C(=O)O [Example 141, (3R,5R,6R)-6-((Z)-2-(2-aminothiazol-4-yl)-2-(((2-carboxypropan-2-yl)oxy)imino)acetamido)-3-(5-((2-chloro-3,4-dihydroxybenzamido)methyl)-2H-tetrazol-2-yl)-7-oxo-4-thia-1-azabicyclo[3.2.0]heptane-3-carboxylic acid] | – | – | 0.25 µg/mL (≈ 0.352 µM) | 0.5 µg/mL (≈ 0.703 µM) | 4 µg/mL (≈ 5.63 µM) | 0.25 µg/mL (≈ 0.352 µM) | 1 µg/mL (≈ 1.41 µM) | 0.5 µg/mL (≈ 0.703 µM) | 1 µg/mL (≈ 1.41 µM) | > 32 µg/mL | 1 µg/mL (≈ 1.41 µM) | – |
| CC(C)(O/N=C(\C(=O)N[C@@H]1C(=O)N2C[C@@](C(=O)O)(N3CCCN(NC(=O)C(=O)c4ccc(O)c(O)c4Cl)C3=O)S[C@H]12)c1csc(N)n1)C(=O)O [Example 86, (3R,5R,6R)-6-((Z)-2-(2-aminothiazol-4-yl)-2-(((2-carboxypropan-2-yl)oxy)imino)acetamido)-3-(3(-2-(2-chloro-3,4-dihydroxyphenyl)-2-oxoacetamido)-2-oxotetrahydropyrimidin-1(2H)-yl)-7-oxo-4-thia-1-azabicyclo[3.2.0]heptane-3-carboxylic acid] | – | – | 1 µg/mL (≈ 1.32 µM) | 1 µg/mL (≈ 1.32 µM) | 2 µg/mL (≈ 2.65 µM) | < 0.06 µg/mL | 1 µg/mL (≈ 1.32 µM) | 1 µg/mL (≈ 1.32 µM) | 4 µg/mL (≈ 5.3 µM) | 0.5 µg/mL (≈ 0.662 µM) | 2 µg/mL (≈ 2.65 µM) | – |
| Nc1nc(/C(=N/OC2(C(=O)O)CCC2)C(=O)N[C@@H]2C(=O)N3C[C@@](C(=O)O)(N4CCN(NC(=O)C(=O)c5ccc(O)c(O)c5Cl)C4=O)S[C@H]23)c(Cl)s1 [Example 78, (3R,5R,6R)-6-((Z)-2-(2-amino-5-chlorothiazol-4-yl)-2-((1-carboxycyclobutoxy)imino)acetamido)-3-(3-(2-(2-chloro-3,4-dihydroxyphenyl)-2-oxoacetamido)-2-oxoimidazolidin-1-yl)-7-oxo-4-thia-1-azabicyclo[3.2.0]heptane-3-carboxylic acid] | – | – | 1 µg/mL (≈ 1.27 µM) | < 0.06 µg/mL | 1 µg/mL (≈ 1.27 µM) | < 0.06 µg/mL | 0.25 µg/mL (≈ 0.317 µM) | 0.25 µg/mL (≈ 0.317 µM) | 0.5 µg/mL (≈ 0.635 µM) | 0.25 µg/mL (≈ 0.317 µM) | 0.25 µg/mL (≈ 0.317 µM) | – |
| Nc1nc(/C(=N/OC2(C(=O)O)CC2)C(=O)N[C@@H]2C(=O)N3C[C@@](C(=O)O)(N4CCN(NC(=O)C(=O)c5ccc(O)c(O)c5Cl)C4=O)S[C@H]23)cs1 [Example 21, (3R,5R,6R)-6-((Z)-2-(2-aminothiazol-4-yl)-2-((1-carboxycyclopropoxy)imino)acetamido)-3-(3-(2-(2-chloro-3,4-dihydroxyphenyl)-2-oxoacetamido)-2-oxoimidazolidin-1-yl)-7-oxo-4-thia-1-azabicyclo[3.2.0]heptane-3-carboxylic acid] | – | – | 2 µg/mL (≈ 2.71 µM) | 4 µg/mL (≈ 5.41 µM) | 1 µg/mL (≈ 1.35 µM) | < 0.06 µg/mL | 2 µg/mL (≈ 2.71 µM) | 0.12 µg/mL (≈ 0.162 µM) | 0.25 µg/mL (≈ 0.338 µM) | < 0.06 µg/mL | 0.5 µg/mL (≈ 0.676 µM) | – |
| CC[C@H](O/N=C(\C(=O)N[C@@H]1C(=O)N2C[C@@](C(=O)O)(N3CCN(NC(=O)C(=O)c4ccc(O)c(O)c4Cl)C3=O)S[C@H]12)c1csc(N)n1)C(=O)O [Example 105, (3R,5R,6R)-6-((Z)-2-(2-aminothiazol-4-yl)-2-(((S)-1-carboxypropoxy)imino)acetamido)-3-(3-(2-(2-chloro-3,4-dihydroxyphenyl)-2-oxoacetamido)-2-oxoimidazolidin-1-yl)-7-oxo-4-thia-1-azabicyclo[3.2.0]heptane-3-carboxylic acid] | – | – | 0.25 µg/mL (≈ 0.337 µM) | < 0.06 µg/mL | 0.5 µg/mL (≈ 0.675 µM) | < 0.06 µg/mL | 0.5 µg/mL (≈ 0.675 µM) | 0.5 µg/mL (≈ 0.675 µM) | 0.25 µg/mL (≈ 0.337 µM) | 0.12 µg/mL (≈ 0.162 µM) | 0.25 µg/mL (≈ 0.337 µM) | – |
| CC(C)(O/N=C(\C(=O)NC1C(=O)N2C[C@@](C(=O)O)(N3CCN(NC(=O)C(=O)NNC(=O)C(=O)c4ccc(O)c(O)c4Cl)C3=O)S[C@H]12)c1nc(N)sc1Cl)C(=O)O (stereo partly drawn) [Example 136, (3R,5R,6R)-6-((Z)-2-(2-amino-5-chlorothia-zol-4-yl)-2-(((2-carboxy-propan-2-yl)oxy)imino)-acetamido)-3-(3-(2-(2-(2-(2-chloro-3,4-dihydroxyphenyl)-2-oxoacetyl)hydrizinyl)-2-oxoacetamido)-2-oxoimidazolidin-1-yl)-7-oxo-4-thia-1-aza-bicyclo[3.2.0]heptane-3-carboxylic acid] | – | – | 0.12 µg/mL (≈ 0.139 µM) | 0.12 µg/mL (≈ 0.139 µM) | 0.5 µg/mL (≈ 0.58 µM) | 0.12 µg/mL (≈ 0.139 µM) | 0.12 µg/mL (≈ 0.139 µM) | < 0.06 µg/mL | 0.5 µg/mL (≈ 0.58 µM) | 0.25 µg/mL (≈ 0.29 µM) | 0.5 µg/mL (≈ 0.58 µM) | – |
| CC(C)(O/N=C(\C(=O)N[C@@H]1C(=O)N2C[C@@](C(=O)O)(N3CC(CNC(=O)c4ccc(O)c(O)c4Cl)OC3=O)S[C@H]12)c1csc(N)n1)C(=O)O (stereo partly drawn) [Example 73, (3R,5R,6R)-6-((Z)-2-(2-aminothiazol-4-yl)-2-(((2-carboxypropan-2-yl)oxy)imino)acetamido)-3-(5-((2-chloro-3,4-dihydroxybenzamido)methyl)-2-oxooxazolidin-3-yl)-7-oxo-4-thia-1-azabicyclo[3.2.0]heptane-3-carboxylic acid] | – | – | 0.5 µg/mL (≈ 0.687 µM) | 0.25 µg/mL (≈ 0.343 µM) | 0.5 µg/mL (≈ 0.687 µM) | 0.12 µg/mL (≈ 0.165 µM) | 1 µg/mL (≈ 1.37 µM) | 0.25 µg/mL (≈ 0.343 µM) | 0.5 µg/mL (≈ 0.687 µM) | 16 µg/mL (≈ 22 µM) | 1 µg/mL (≈ 1.37 µM) | – |
| CC(C)(O/N=C(\C(=O)N[C@@H]1C(=O)N2C[C@@](C(=O)O)(N3CCN(NC(=O)C(=O)N(O)CCNC(=O)c4ccc(O)c(O)c4Cl)C3=O)S[C@H]12)c1csc(N)n1)C(=O)O [Example 104, (3R,5R,6R)-6-((Z)-2-(2-aminothiazol-4-yl)-2-(((2-carboxypropan-2-yl)oxy)imino)acetamido)-3-(3-(2-((2-(2-chloro-3,4-dihydroxybenzamido)ethyl)(hydroxy)amino)-2-oxoacetamido)-2-oxoimidazolidin-1-yl)-7-oxo-4-thia-1-azabicyclo[3.2.0]heptane-3-carboxylic acid] | – | – | 0.5 µg/mL (≈ 0.593 µM) | 2 µg/mL (≈ 2.37 µM) | 4 µg/mL (≈ 4.74 µM) | < 0.06 µg/mL | 2 µg/mL (≈ 2.37 µM) | 1 µg/mL (≈ 1.19 µM) | – | 2 µg/mL (≈ 2.37 µM) | 1 µg/mL (≈ 1.19 µM) | 2 µg/mL (≈ 2.37 µM) |
